How the values were obtained:
[1] = biological target: ALK tyrosine kinase receptor (Homo sapiens) (UniProt Q9UM73); conditions: Compound concentration 1000.0 nM
[2] = biological target: Ephrin type-B receptor 4 (Homo sapiens) (UniProt P54760); conditions: Compound concentration 1000.0 nM
[3] = biological target: 5'-AMP-activated protein kinase catalytic subunit alpha-2 (Homo sapiens) (UniProt P54646); conditions: Compound concentration 1000.0 nM
[4] = biological target: Activin receptor type-1 (Homo sapiens) (UniProt Q04771); conditions: Compound concentration 1000.0 nM
[5] = biological target: Receptor-type tyrosine-protein kinase FLT3 (Homo sapiens) (UniProt P36888); conditions: Compound concentration 1000.0 nM
[6] = biological target: Casein kinase I isoform gamma-1 (Homo sapiens) (UniProt Q9HCP0); conditions: Compound concentration 1000.0 nM
Sequence of Casein kinase I isoform gamma-1 (Homo sapiens) (Q9HCP0 whole entry, looked up, canonical isoform): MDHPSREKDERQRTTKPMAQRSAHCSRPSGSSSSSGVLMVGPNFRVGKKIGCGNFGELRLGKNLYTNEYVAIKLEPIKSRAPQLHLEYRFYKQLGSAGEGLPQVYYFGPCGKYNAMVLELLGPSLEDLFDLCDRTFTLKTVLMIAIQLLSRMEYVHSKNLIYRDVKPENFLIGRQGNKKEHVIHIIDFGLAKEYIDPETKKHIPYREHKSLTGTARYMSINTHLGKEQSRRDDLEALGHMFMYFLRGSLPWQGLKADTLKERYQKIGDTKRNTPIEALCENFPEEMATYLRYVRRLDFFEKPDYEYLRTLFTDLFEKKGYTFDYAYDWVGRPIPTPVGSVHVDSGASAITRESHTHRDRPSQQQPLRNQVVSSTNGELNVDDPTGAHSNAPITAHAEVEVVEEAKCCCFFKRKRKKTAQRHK

[7] = system: Tyrosine-protein kinase ABL1 (Homo sapiens), P00519 [T315I]; conditions: Compound concentration 1000.0 nM
[8] = biological target: Serine/threonine-protein kinase 32B (Homo sapiens) (UniProt Q9NY57); conditions: Compound concentration 1000.0 nM
Sequence of Serine/threonine-protein kinase 32B (Homo sapiens) (Q9NY57 whole entry): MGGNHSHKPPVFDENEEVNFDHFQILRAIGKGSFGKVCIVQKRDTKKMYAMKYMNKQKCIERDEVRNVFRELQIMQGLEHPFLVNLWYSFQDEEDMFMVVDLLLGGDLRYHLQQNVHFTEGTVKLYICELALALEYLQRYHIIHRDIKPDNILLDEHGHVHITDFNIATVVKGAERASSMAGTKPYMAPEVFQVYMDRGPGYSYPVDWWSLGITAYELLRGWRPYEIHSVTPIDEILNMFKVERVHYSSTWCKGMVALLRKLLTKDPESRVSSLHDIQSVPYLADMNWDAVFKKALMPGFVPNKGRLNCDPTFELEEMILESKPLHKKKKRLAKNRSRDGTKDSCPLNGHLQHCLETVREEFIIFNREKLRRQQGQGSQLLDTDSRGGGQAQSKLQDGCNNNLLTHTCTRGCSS

[9] = biological target: Mitogen-activated protein kinase 3 (Homo sapiens) (UniProt P27361); conditions: Compound concentration 1000.0 nM
[10] = biological target: Sodium-dependent dopamine transporter (Homo sapiens) (UniProt Q01959); conditions: Compound concentration 10.0 uM
[11] = system: Epidermal growth factor receptor (Homo sapiens), P00533 [L858R,T790M]; conditions: Compound concentration 1000.0 nM
[12] = biological target: cAMP-dependent protein kinase catalytic subunit beta (Homo sapiens) (UniProt P22694); conditions: Compound concentration 1000.0 nM
[13] = biological target: Myosin-IIIa (Homo sapiens) (UniProt Q8NEV4); conditions: Compound concentration 1000.0 nM
[14] = biological target: Serine/threonine-protein kinase ULK1 (Homo sapiens) (UniProt O75385); conditions: Compound concentration 1000.0 nM
Sequence of Serine/threonine-protein kinase ULK1 (Homo sapiens) (O75385 whole entry): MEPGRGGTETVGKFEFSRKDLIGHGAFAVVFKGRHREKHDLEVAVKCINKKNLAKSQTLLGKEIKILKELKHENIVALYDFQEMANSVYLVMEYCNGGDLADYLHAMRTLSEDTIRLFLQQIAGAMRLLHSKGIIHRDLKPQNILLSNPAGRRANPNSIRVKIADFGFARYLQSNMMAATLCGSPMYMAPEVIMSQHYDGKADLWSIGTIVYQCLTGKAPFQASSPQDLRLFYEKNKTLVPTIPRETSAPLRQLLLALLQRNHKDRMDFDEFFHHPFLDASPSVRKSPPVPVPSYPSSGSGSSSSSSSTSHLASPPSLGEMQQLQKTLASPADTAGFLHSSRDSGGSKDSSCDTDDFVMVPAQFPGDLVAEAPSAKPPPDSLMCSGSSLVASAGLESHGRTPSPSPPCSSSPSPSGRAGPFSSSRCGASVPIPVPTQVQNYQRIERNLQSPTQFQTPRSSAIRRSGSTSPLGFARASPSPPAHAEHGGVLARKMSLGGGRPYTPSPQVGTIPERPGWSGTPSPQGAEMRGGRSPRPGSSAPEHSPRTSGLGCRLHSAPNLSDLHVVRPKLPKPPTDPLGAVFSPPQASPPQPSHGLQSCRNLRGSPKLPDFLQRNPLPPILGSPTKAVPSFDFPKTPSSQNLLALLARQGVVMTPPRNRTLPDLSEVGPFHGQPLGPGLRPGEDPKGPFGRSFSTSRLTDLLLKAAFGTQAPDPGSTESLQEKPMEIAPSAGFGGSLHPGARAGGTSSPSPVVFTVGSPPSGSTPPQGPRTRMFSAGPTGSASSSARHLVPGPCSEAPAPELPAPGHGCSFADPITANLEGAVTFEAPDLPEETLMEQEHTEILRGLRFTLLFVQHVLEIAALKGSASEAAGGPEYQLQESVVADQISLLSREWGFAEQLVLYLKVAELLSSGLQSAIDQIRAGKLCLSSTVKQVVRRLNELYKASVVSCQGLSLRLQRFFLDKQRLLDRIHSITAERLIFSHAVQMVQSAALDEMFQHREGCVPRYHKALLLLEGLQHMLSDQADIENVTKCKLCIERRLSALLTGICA

[15] = biological target: Dual specificity mitogen-activated protein kinase kinase 7 (Homo sapiens) (UniProt O14733); conditions: Compound concentration 1000.0 nM
[16] = biological target: TRAF2 and NCK-interacting protein kinase (Homo sapiens) (UniProt Q9UKE5); conditions: Compound concentration 1000.0 nM
[17] = biological target: 5'-AMP-activated protein kinase catalytic subunit alpha-1 (Homo sapiens) (UniProt Q13131); conditions: Compound concentration 1000.0 nM
Sequence of 5'-AMP-activated protein kinase catalytic subunit alpha-1 (Homo sapiens) (Q13131 whole entry, looked up, canonical isoform): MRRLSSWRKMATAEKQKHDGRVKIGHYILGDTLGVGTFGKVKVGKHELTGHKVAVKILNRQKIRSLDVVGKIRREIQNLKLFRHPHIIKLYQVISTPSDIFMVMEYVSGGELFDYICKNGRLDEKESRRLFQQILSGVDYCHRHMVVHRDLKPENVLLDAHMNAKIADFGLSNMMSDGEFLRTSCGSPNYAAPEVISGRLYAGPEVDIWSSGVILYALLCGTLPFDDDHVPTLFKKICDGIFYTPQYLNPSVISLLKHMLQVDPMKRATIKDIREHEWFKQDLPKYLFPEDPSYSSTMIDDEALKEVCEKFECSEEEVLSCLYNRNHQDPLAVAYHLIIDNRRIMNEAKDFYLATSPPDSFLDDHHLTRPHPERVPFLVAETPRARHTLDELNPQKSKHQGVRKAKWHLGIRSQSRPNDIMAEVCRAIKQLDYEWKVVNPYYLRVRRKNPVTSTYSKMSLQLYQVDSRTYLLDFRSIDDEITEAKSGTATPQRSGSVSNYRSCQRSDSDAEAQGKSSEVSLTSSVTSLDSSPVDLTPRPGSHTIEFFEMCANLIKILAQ

[18] = biological target: Casein kinase I isoform gamma-2 (Homo sapiens) (UniProt P78368); conditions: Compound concentration 1000.0 nM
Sequence of Casein kinase I isoform gamma-2 (Homo sapiens) (P78368 whole entry, looked up, canonical isoform): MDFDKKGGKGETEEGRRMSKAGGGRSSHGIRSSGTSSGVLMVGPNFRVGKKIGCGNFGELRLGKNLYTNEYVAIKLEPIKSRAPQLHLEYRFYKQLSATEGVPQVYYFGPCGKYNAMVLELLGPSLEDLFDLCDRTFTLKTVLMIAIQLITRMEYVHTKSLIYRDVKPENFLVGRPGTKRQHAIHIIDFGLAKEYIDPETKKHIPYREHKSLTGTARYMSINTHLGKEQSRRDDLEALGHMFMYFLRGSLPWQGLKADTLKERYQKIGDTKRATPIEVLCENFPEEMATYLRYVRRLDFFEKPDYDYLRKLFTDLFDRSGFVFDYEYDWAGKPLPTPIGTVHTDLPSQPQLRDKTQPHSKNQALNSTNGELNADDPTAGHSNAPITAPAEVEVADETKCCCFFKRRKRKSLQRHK

[19] = biological target: Cyclin-dependent kinase 4 (Homo sapiens) (UniProt P11802); conditions: Compound concentration 1000.0 nM
[20] = biological target: Serine/threonine-protein kinase Chk2 (Homo sapiens) (UniProt O96017); conditions: Compound concentration 1000.0 nM
[21] = biological target: Serine/threonine-protein kinase WNK2 (Homo sapiens) (UniProt Q9Y3S1); conditions: Compound concentration 1000.0 nM
[22] = system: Mast/stem cell growth factor receptor Kit (Homo sapiens), P10721 [A829P]; conditions: Compound concentration 1000.0 nM
[23] = biological target: Dual specificity protein kinase CLK2 (Homo sapiens) (UniProt P49760); conditions: Compound concentration 1000.0 nM
[24] = biological target: Tyrosine-protein kinase ABL2 (Homo sapiens) (UniProt P42684); conditions: Compound concentration 1000.0 nM
[25] = biological target: Mitogen-activated protein kinase 4 (Homo sapiens) (UniProt P31152); conditions: Compound concentration 1000.0 nM
[26] = biological target: Maternal embryonic leucine zipper kinase (Homo sapiens) (UniProt Q14680); conditions: Compound concentration 1000.0 nM
[27] = biological target: Peripheral plasma membrane protein CASK (Homo sapiens) (UniProt O14936); conditions: Compound concentration 1000.0 nM
[28] = biological target: T1, Alpha-2B adrenergic receptor (Homo sapiens) (UniProt P18089); conditions: Compound concentration 10.0 uM
T1 sequence (whole entry): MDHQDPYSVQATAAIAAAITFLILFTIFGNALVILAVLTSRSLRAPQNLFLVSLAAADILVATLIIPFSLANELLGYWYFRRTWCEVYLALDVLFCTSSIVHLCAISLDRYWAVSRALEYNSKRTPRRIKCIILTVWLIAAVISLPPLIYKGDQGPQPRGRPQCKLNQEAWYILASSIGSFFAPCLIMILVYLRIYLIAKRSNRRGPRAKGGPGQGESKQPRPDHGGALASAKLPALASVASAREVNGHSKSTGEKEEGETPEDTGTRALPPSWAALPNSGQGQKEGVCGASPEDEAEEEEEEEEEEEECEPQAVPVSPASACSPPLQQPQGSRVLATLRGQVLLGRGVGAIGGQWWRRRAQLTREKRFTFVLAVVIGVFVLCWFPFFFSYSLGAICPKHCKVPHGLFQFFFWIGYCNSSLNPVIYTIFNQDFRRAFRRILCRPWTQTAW

[29] = biological target: Serine/threonine-protein kinase Sgk1 (Homo sapiens) (UniProt O00141); conditions: Compound concentration 1000.0 nM
[30] = biological target: Calcium/calmodulin-dependent protein kinase type 1B (Homo sapiens) (UniProt Q6P2M8); conditions: Compound concentration 1000.0 nM
[31] = biological target: MAP kinase-interacting serine/threonine-protein kinase 2 (Homo sapiens) (UniProt Q9HBH9); conditions: Compound concentration 1000.0 nM
[32] = system: ALK tyrosine kinase receptor (Homo sapiens), Q9UM73 [C1156Y]; conditions: Compound concentration 1000.0 nM
[33] = biological target: Serine/threonine-protein kinase 33 (Homo sapiens) (UniProt Q9BYT3); conditions: Compound concentration 1000.0 nM
[34] = biological target: Mitogen-activated protein kinase kinase kinase 2 (Homo sapiens) (UniProt Q9Y2U5); conditions: Compound concentration 1000.0 nM
[35] = biological target: Interleukin-1 receptor-associated kinase 1 (Homo sapiens) (UniProt P51617); conditions: Compound concentration 1000.0 nM
[36] = biological target: Serine/threonine-protein kinase Nek4 (Homo sapiens) (UniProt P51957); conditions: Compound concentration 1000.0 nM
[37] = biological target: NT-3 growth factor receptor (Homo sapiens) (UniProt Q16288); conditions: Compound concentration 1000.0 nM
[38] = biological target: Mitogen-activated protein kinase 14 (Homo sapiens) (UniProt Q16539); conditions: Compound concentration 1000.0 nM
Sequence of Mitogen-activated protein kinase 14 (Homo sapiens) (Q16539 whole entry): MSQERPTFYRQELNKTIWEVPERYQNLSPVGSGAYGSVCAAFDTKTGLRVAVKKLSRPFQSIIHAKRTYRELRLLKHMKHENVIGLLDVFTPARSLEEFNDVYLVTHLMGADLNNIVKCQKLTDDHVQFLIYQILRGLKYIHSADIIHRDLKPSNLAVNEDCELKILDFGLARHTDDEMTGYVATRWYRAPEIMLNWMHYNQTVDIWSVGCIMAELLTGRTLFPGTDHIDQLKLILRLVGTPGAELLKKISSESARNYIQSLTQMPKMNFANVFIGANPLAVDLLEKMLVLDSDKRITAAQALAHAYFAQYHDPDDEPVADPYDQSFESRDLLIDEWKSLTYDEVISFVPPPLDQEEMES

[39] = biological target: Ephrin type-A receptor 4 (Homo sapiens) (UniProt P54764); conditions: Compound concentration 1000.0 nM

Sequence of ALK tyrosine kinase receptor (Homo sapiens) (Q9UM73 19-1620 limits assumed): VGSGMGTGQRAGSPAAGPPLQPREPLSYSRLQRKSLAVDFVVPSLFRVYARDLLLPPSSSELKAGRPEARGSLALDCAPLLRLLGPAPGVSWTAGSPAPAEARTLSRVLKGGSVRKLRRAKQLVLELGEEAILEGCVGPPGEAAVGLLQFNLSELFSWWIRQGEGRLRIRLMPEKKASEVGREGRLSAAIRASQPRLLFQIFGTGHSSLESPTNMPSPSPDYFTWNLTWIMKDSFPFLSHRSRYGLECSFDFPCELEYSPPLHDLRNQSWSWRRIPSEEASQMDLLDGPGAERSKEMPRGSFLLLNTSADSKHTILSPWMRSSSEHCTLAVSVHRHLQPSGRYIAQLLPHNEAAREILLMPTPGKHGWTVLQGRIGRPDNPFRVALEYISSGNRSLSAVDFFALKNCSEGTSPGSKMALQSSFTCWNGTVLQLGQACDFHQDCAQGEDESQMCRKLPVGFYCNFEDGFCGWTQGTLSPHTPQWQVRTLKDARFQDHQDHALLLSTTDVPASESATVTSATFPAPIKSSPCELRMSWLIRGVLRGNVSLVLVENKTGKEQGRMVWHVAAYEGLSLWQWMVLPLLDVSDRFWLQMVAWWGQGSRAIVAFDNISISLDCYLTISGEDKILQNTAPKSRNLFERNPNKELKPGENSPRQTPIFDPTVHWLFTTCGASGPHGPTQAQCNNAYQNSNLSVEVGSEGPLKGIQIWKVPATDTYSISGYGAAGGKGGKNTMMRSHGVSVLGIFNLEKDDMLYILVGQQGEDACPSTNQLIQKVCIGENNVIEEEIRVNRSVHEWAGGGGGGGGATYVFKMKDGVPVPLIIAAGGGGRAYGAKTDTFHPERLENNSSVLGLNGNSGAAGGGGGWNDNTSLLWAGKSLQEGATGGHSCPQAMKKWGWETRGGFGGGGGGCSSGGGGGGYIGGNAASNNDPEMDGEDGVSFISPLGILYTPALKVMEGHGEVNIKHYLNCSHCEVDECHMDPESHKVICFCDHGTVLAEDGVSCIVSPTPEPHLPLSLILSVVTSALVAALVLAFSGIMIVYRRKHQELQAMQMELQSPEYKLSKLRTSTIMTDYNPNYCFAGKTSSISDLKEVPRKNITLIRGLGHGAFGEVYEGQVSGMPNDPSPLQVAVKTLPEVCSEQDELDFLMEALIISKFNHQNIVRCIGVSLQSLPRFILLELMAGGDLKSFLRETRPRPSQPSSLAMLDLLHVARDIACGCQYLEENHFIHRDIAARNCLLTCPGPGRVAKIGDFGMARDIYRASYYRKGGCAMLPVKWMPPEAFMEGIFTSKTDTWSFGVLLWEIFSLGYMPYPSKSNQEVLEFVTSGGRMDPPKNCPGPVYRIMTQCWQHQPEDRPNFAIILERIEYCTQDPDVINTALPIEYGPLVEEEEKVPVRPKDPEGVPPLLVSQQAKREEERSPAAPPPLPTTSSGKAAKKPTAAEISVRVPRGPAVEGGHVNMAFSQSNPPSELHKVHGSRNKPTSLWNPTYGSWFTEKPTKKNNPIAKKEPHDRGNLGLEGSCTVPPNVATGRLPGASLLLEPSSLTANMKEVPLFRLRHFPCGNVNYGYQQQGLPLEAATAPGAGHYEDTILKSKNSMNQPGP

N#CC1(c2ccccn2)CCN(Cc2cc(C(=O)O)c(=O)n3ccccc23)CC1 [MSD-M1PAM]
inactive: residual activity [1] 100% | residual activity [2] 83% | residual activity [3] 100% | residual activity [4] 96% | residual activity [5] 85% | residual activity [6] 100% | residual activity [7] 80% | residual activity [8] 100% | residual activity [9] 100% | inhibition [10] -7.27% | residual activity [11] 71% | residual activity [12] 92% | residual activity [13] 100% | residual activity [14] 76% | residual activity [15] 95% | residual activity [16] 100% | residual activity [17] 100% | residual activity [18] 91% | residual activity [19] 82% | residual activity [20] 87% | residual activity [21] 79% | residual activity [22] 84% | residual activity [23] 100% | residual activity [24] 100% | residual activity [25] 100% | residual activity [26] 55% | residual activity [27] 100% | inhibition [28] -6.86% | residual activity [29] 87% | residual activity [30] 100% | residual activity [31] 85% | residual activity [32] 100% | residual activity [33] 56% | residual activity [34] 76% | residual activity [35] 77% | residual activity [36] 100% | residual activity [37] 70% | residual activity [38] 100% | residual activity [39] 79%

N#CC1(c2ccccn2)CCN(Cc2cc(C(=O)N3CCCC3)c(=O)n3ccccc23)CC1
inactive: residual activity [1] 100% | residual activity [2] 100% | residual activity [3] 100% | residual activity [4] 83% | residual activity [5] 86% | residual activity [6] 79% | residual activity [7] 83% | residual activity [8] 100% | residual activity [9] 91% | inhibition [10] 18.6% | residual activity [11] 100% | residual activity [12] 54% | residual activity [13] 80% | residual activity [14] 91% | residual activity [15] 100% | residual activity [16] 100% | residual activity [17] 100% | residual activity [18] 76% | residual activity [19] 98% | residual activity [20] 92% | residual activity [21] 100% | residual activity [22] 50% | residual activity [23] 100% | residual activity [24] 100% | residual activity [25] 76% | residual activity [26] 78% | residual activity [27] 100% | inhibition [28] -2.99% | residual activity [29] 100% | residual activity [30] 90% | residual activity [31] 96% | residual activity [32] 100% | residual activity [33] 62% | residual activity [34] 100% | residual activity [35] 100% | residual activity [36] 88% | residual activity [37] 100% | residual activity [38] 86% | residual activity [39] 89%
